Measurements taken from paper PMC10882719 (Frontiers in Neuroscience, 2024).
Where two headings read alike, the source gives them in different places.

Assays:
Type in all cases: cell-based
168 GPCRs [1] = biological target: T1, 168 GPCRs (Homo sapiens, UniProt P0DMS8)
T1 construct: host or cells: PathHunter cell lines
T1 sequence (P0DMS8 1-318): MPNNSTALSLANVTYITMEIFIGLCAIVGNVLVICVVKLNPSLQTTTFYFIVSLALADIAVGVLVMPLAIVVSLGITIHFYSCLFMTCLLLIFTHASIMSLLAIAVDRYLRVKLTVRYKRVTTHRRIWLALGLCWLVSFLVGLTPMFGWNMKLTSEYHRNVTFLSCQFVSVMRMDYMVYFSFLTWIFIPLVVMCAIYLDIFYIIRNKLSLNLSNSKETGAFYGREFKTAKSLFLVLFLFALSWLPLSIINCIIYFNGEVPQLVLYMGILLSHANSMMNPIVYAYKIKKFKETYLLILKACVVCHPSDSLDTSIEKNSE

168 GPCRs [2] = biological target: T2, 168 GPCRs (Homo sapiens, UniProt P18825); details: ADRA2C
T2 construct: host or cells: PathHunter cell lines
T2 sequence (P18825 1-462): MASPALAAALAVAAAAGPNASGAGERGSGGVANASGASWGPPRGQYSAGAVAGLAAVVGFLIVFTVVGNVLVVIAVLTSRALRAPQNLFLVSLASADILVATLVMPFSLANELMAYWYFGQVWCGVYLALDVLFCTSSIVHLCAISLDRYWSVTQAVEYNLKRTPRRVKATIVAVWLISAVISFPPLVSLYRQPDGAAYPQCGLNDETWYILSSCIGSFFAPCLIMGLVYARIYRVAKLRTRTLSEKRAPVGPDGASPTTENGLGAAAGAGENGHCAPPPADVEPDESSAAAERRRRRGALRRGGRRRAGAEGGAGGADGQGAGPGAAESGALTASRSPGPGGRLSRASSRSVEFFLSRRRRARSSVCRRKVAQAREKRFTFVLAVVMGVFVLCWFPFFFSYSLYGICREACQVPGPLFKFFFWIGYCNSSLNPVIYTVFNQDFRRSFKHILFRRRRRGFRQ

168 GPCRs [3] = biological target: T3, 168 GPCRs (Homo sapiens, UniProt P21728)
T3 construct: host or cells: PathHunter cell lines

168 GPCRs [4] = biological target: T4, 168 GPCRs (Homo sapiens, UniProt P21917)
T4 construct: host or cells: PathHunter cell lines
T4 sequence (P21917 1-419): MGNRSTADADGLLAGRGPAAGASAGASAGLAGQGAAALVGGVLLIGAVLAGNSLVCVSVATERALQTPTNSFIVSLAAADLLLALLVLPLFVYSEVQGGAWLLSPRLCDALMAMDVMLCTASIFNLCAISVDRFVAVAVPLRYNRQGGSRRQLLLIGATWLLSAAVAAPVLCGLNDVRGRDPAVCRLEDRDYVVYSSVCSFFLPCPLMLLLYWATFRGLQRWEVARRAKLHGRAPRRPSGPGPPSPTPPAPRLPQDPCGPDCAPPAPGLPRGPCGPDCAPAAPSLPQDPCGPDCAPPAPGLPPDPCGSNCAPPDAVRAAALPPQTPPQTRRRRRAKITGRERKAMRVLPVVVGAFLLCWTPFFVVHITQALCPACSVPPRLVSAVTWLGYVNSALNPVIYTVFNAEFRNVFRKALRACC

168 GPCRs [5] = biological target: T5, 168 GPCRs (Homo sapiens, UniProt P33032); details: MC5R
T5 construct: host or cells: PathHunter cell lines

168 GPCRs [6] = biological target: T6, 168 GPCRs (Homo sapiens, UniProt P35462)
T6 construct: host or cells: PathHunter cell lines

168 GPCRs [7] = biological target: T7, 168 GPCRs (Homo sapiens, UniProt P48546); details: GIPR
T7 construct: host or cells: PathHunter cell lines
T7 sequence (P48546 22-466): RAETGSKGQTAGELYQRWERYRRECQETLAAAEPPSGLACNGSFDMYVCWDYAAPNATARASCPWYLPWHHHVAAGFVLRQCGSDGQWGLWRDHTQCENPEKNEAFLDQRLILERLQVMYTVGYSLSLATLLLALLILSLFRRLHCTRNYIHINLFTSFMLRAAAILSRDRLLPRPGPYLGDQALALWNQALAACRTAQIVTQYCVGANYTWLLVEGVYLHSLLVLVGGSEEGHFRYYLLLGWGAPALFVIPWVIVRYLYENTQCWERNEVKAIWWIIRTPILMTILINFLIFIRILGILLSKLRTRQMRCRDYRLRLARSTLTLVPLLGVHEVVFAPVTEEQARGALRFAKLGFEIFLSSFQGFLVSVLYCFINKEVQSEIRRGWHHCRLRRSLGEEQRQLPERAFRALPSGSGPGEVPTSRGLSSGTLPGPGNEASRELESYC

T5 sequence (P33032 whole entry): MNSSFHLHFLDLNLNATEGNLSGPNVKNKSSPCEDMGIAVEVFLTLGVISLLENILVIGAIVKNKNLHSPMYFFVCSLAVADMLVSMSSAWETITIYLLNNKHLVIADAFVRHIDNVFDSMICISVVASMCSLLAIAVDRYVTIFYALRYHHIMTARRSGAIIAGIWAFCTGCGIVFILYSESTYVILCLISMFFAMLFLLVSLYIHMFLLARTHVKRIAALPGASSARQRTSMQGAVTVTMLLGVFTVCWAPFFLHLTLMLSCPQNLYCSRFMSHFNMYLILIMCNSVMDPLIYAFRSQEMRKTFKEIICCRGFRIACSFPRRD
T3 sequence (P21728 whole entry): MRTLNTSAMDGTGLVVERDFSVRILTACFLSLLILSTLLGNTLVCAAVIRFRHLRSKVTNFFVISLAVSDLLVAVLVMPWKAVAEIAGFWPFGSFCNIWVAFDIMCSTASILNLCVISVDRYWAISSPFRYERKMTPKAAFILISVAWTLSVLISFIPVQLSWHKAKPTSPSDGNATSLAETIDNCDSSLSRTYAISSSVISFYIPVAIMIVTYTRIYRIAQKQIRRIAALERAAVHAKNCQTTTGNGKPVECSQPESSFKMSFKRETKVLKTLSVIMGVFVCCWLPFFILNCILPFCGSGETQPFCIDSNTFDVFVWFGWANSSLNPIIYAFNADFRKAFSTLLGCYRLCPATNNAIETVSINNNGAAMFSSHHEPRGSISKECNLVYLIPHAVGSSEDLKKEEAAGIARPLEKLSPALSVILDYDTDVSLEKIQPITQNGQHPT
T6 sequence (P35462 whole entry): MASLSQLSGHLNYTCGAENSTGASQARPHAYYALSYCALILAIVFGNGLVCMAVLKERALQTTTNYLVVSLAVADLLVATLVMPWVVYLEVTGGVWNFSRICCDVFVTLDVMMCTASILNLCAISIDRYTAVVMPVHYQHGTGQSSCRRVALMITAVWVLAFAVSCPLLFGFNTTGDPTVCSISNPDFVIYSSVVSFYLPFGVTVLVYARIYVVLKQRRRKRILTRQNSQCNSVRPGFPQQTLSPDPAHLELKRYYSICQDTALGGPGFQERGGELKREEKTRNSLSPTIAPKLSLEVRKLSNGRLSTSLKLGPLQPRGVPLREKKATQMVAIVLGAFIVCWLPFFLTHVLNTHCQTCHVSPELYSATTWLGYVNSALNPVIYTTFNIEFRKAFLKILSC

Compound	% Agonist Activity (168 GPCRs [1]; ADORA3, 1 uM)	% Antagonist Activity (168 GPCRs [1]; ADORA3, 1 uM)	% Agonist Activity (168 GPCRs [1]; ADORA3, 10 uM)	% Antagonist Activity (168 GPCRs [1]; ADORA3, 10 uM)	% Agonist Activity (168 GPCRs [2]; 1 uM)	% Antagonist Activity (168 GPCRs [2]; 1 uM)	% Agonist Activity (168 GPCRs [2]; 10 uM)	% Antagonist Activity (168 GPCRs [2]; 10 uM)	% Agonist Activity (168 GPCRs [3]; DRD1, 1 uM)	% Antagonist Activity (168 GPCRs [3]; DRD1, 1 uM)	% Agonist Activity (168 GPCRs [3]; DRD1, 10 uM)	% Antagonist Activity (168 GPCRs [3]; DRD1, 10 uM)	% Agonist Activity (168 GPCRs [4]; DRD4, 1 uM)	% Antagonist Activity (168 GPCRs [4]; DRD4, 1 uM)	% Agonist Activity (168 GPCRs [4]; DRD4, 10 uM)	% Antagonist Activity (168 GPCRs [4]; DRD4, 10 uM)	% Agonist Activity (168 GPCRs [5]; 1 uM)	% Antagonist Activity (168 GPCRs [5]; 1 uM)	% Agonist Activity (168 GPCRs [5]; 10 uM)	% Antagonist Activity (168 GPCRs [5]; 10 uM)	also measured
CNC(C)Cc1ccc2c(c1)OCO2 (centres unmarked) [MDMA, 3,4-Methylenedioxy methamphetamine, reference compound]	0.7%	-15.4%	0.6%	-11.5%	3.9%	16.4%	6.9%	38.1%	-1%	-0.5%	-0.8%	6%	-0.7%	14.9%	-0.1%	7.7%	2.5%	-0.9%	1%	7.1%	% Agonist Activity (168 GPCRs [6]; DRD3, 1 uM): 7.1%; % Antagonist Activity (168 GPCRs [6]; DRD3, 1 uM): 9.6%; % Agonist Activity (168 GPCRs [6]; DRD3, 10 uM): 7.3%; % Antagonist Activity (168 GPCRs [6]; DRD3, 10 uM): 10.6%; % Agonist Activity (168 GPCRs [7]; 1 uM): -2.6%; % Antagonist Activity (168 GPCRs [7]; 1 uM): -0.1%; % Agonist Activity (168 GPCRs [7]; 10 uM): -3.3%; % Antagonist Activity (168 GPCRs [7]; 10 uM): -0.1%
CNC(C)C(=O)c1ccc2c(c1)OCO2 (centres unmarked) [methylone]	-4.5%	11.3%	-5.3%	7.7%	-2.5%	-4.3%	0.1%	17.6%	-1.6%	6%	-1.6%	7.8%	-8%	8.4%	-9.4%	12.2%	-7.9%	1.7%	-8.9%	-6.3%	% Agonist Activity (168 GPCRs [6]; DRD3, 1 uM): 2.2%; % Antagonist Activity (168 GPCRs [6]; DRD3, 1 uM): -12%; % Agonist Activity (168 GPCRs [6]; DRD3, 10 uM): 2.3%; % Antagonist Activity (168 GPCRs [6]; DRD3, 10 uM): -17.8%; % Agonist Activity (168 GPCRs [7]; 1 uM): -2.9%; % Antagonist Activity (168 GPCRs [7]; 1 uM): -1%; % Agonist Activity (168 GPCRs [7]; 10 uM): -5.8%; % Antagonist Activity (168 GPCRs [7]; 10 uM): -5.1%
